According to patent US12226424B2, “Target protein degradation compounds, their anti-tumor use, their intermediates and use of intermediates” (ShanghaiTech University, priority 2018, dated 2025):

Tested on: CDK4/6 protein
Assay: Western-blot determination of CDK4/6 protein degradation (DC50) in T-47D cells
Type: cell-based, human
Details: 24 h drug treatment, read-out: DC50(nM)/T-47D cell line

DC50 | SMILES
0.5 to 5 nM | Cc1nc2c(F)cc(-c3nc(Nc4ccc(CN5CCN(C(=O)CSc6cccc7c6CN(C6CCC(=O)NC6=O)C7=O)CC5)cn4)ncc3F)cc2n1C(C)C (centres unmarked) [SIAIS262164, 3-(4-((2-(4-((6-((5-fluoro-4-(4-fluoro-1-isopropyl-2-methyl-1H-benzo[d]imidazol-6-yl)pyrimidin-2-yl)amino)pyridin-3-yl)methyl)piperazin-1-yl)-2-oxoethyl)thio)-1-oxoisoindolin-2-yl)piperidine-2,6-dione]
5 nM | Cc1nc2c(F)cc(-c3nc(Nc4ccc(CN5CCN(C(=O)CCSc6cccc7c6CN(C6CCC(=O)NC6=O)C7=O)CC5)cn4)ncc3F)cc2n1C(C)C (centres unmarked) [SIAIS262165, 3-(4-((3-(4-((6-((5-fluoro-4-(4-fluoro-1-isopropyl-2-methyl-1H-benzo[d]imidazol-6-yl)pyrimidin-2-yl)amino)pyridin-3-yl)methyl)piperazin-1-yl)-3-oxopropyl)thio)-1-oxoisoindolin-2-yl)piperidine-2,6-dione]
0.5 to 5 nM | Cc1nc2c(F)cc(-c3nc(Nc4ccc(CN5CCN(C(=O)CCCSc6cccc7c6CN(C6CCC(=O)NC6=O)C7=O)CC5)cn4)ncc3F)cc2n1C(C)C (centres unmarked) [SIAIS262166, 3-(4-((4-(4-((6-((5-fluoro-4-(4-fluoro-1-isopropyl-2-methyl-1H-benzo[d]imidazol-6-yl)pyrimidin-2-yl)amino)pyridin-3-yl)methyl)piperazin-1-yl)-4-oxobutyl)thio)-1-oxoisoindolin-2-yl)piperidine-2,6-dione]
0.5 to 5 nM | Cc1nc2c(F)cc(-c3nc(Nc4ccc(CN5CCN(C(=O)CCCCSc6cccc7c6CN(C6CCC(=O)NC6=O)C7=O)CC5)cn4)ncc3F)cc2n1C(C)C (centres unmarked) [SIAIS262167, 3-(4-((5-(4-((6-((5-fluoro-4-(4-fluoro-1-isopropyl-2-methyl-1H-benzo[d]imidazol-6-yl)pyrimidin-2-yl)amino)pyridin-3-yl)methyl)piperazin-1-yl)-5-oxopentyl)thio)-1-oxoisoindolin-2-yl)piperidine-2,6-dione]
0.05 to 0.5 nM | Cc1nc2c(F)cc(-c3nc(Nc4ccc(CN5CCN(C(=O)CCCCCSc6cccc7c6CN(C6CCC(=O)NC6=O)C7=O)CC5)cn4)ncc3F)cc2n1C(C)C (centres unmarked) [SIAIS262168, 3-(4-((6-(4-((6-((5-fluoro-4-(4-fluoro-1-isopropyl-2-methyl-1H-benzo[d]imidazol-6-yl)pyrimidin-2-yl)amino)pyridin-3-yl)methyl)piperazin-1-yl)-6-oxohexyl)thio)-1-oxoisoindolin-2-yl)piperidine-2,6-dione]
5 nM | Cc1nc2c(F)cc(-c3nc(Nc4ccc(CN5CCN(C(=O)CCCCCCSc6cccc7c6CN(C6CCC(=O)NC6=O)C7=O)CC5)cn4)ncc3F)cc2n1C(C)C (centres unmarked) [SIAIS262169, 3-(4-((7-(4-((6-((5-fluoro-4-(4-fluoro-1-isopropyl-2-methyl-1H-benzo[d]imidazol-6-yl)pyrimidin-2-yl)amino)pyridin-3-yl)methyl)piperazin-1-yl)-7-oxoheptyl)thio)-1-oxoisoindolin-2-yl)piperidine-2,6-dione]
50 nM | Cc1nc2c(F)cc(-c3nc(Nc4ccc(CN5CCN(C(=O)CCCCCCCCCCSc6cccc7c6CN(C6CCC(=O)NC6=O)C7=O)CC5)cn4)ncc3F)cc2n1C(C)C (centres unmarked) [SIAIS262170, 3-(4-((11-(4-((6-((5-fluoro-4-(4-fluoro-1-isopropyl-2-methyl-1H-benzo[d]imidazol-6-yl)pyrimidin-2-yl)amino)pyridin-3-yl)methyl)piperazin-1-yl)-11-oxoundecyl)thio)-1-oxoisoindolin-2-yl)piperidine-2,6-dione]
0.5 nM | Cc1nc2c(F)cc(-c3nc(Nc4ccc(CN5CCN(C(=O)COCCSc6cccc7c6CN(C6CCC(=O)NC6=O)C7=O)CC5)cn4)ncc3F)cc2n1C(C)C (centres unmarked) [SIAIS262171, 3-(4-((2-(2-(4-((6-((5-fluoro-4-(4-fluoro-1-isopropyl-2-methyl-1H-benzo[d]imidazol-6-yl)pyrimidin-2-yl)amino)pyridin-3-yl)methyl)piperazin-1-yl)-2-oxoethoxy)ethyl)thio)-1-oxoisoindolin-2-yl)piperidine-2,6-dione]
0.05 to 0.5 nM | Cc1nc2c(F)cc(-c3nc(Nc4ccc(CN5CCN(CCCCCCSc6cccc7c6CN(C6CCC(=O)NC6=O)C7=O)CC5)cn4)ncc3F)cc2n1C(C)C (centres unmarked) [SIAIS262173, 3-(4-((6-(4-((6-((5-fluoro-4-(4-fluoro-1-isopropyl-2-methyl-1H-benzo[d]imidazol-6-yl)pyrimidin-2-yl)amino)pyridin-3-yl)methyl)piperazin-1-yl)hexyl)thio)-1-oxoisoindolin-2-yl)piperidine-2,6-dione]

Continued, compound first:

SMILES | DC50
CN(C)C(=O)c1cc2cnc(Nc3ccc(N4CCN(C(=O)COCCOCCSc5cccc6c5C(=O)N(C5CCC(=O)NC5=O)C6=O)CC4)cn3)nc2n1C1CCCC1 (centres unmarked) [SIAIS219112, 7-cyclopentyl-2-((5-(4-(2-(2-(2-((2-(2,6-dioxopiperidin-3-yl)-1,3-dioxoisoindolin-4-yl)thio)ethoxy)ethoxy)acetyl)piperazin-1-yl)pyridin-2-yl)amino)-N,N-dimethyl-7H-pyrrolo[2,3-d]pyrimidine-6-carboxamide] | 0.04 to 0.2 nM
CN(C)C(=O)c1cc2cnc(Nc3ccc(N4CCN(C(=O)COCCOCCOCCSc5cccc6c5C(=O)N(C5CCC(=O)NC5=O)C6=O)CC4)cn3)nc2n1C1CCCC1 (centres unmarked) [SIAIS219113, 7-cyclopentyl-2-((5-(4-(2-(2-(2-(2-((2-(2,6-dioxopiperidin-3-yl)-1,3-dioxoisoindolin-4-yl)thio)ethoxy)ethoxy)ethoxy)acetyl)piperazin-1-yl)pyridin-2-yl)amino)-N,N-dimethyl-7H-pyrrolo[2,3-d]pyrimidine-6-carboxamide] | < 1 nM
CN(C)C(=O)c1cc2cnc(Nc3ccc(N4CCN(C(=O)COCCOCCOCCOCCSc5cccc6c5C(=O)N(C5CCC(=O)NC5=O)C6=O)CC4)cn3)nc2n1C1CCCC1 (centres unmarked) [SIAIS219114, 7-cyclopentyl-2-((5-(4-(14-((2-(2,6-dioxopiperidin-3-yl)-1,3-dioxoisoindolin-4-yl)thio)-3,6,9,12-tetraoxatetradecanoyl)piperazin-1-yl)pyridin-2-yl)amino)-N,N-dimethyl-7H-pyrrolo[2,3-d]pyrimidine-6-carboxamide] | 1 to 10 nM

Same assay, conditions: read-out: DC50(nM)/T-47D cell line, 24 h drug treatment

SMILES | DC50
CN(C)C(=O)c1cc2cnc(Nc3ccc(N4CCN(C(=O)COCCSc5cccc6c5C(=O)N(C5CCC(=O)NC5=O)C6=O)CC4)cn3)nc2n1C1CCCC1 (centres unmarked) [SIAIS219111, 7-cyclopentyl-2-((5-(4-(2-(2-((2-(2,6-dioxopiperidin-3-yl)-1,3-dioxoisoindolin-4-yl)thio)ethoxy)acetyl)piperazin-1-yl)pyridin-2-yl)amino)-N,N-dimethyl-7H-pyrrolo[2,3-d]pyrimidine-6-carboxamide] | < 1 nM

Tested on: K562 cells (BCR-ABL positive)
Assay: Half inhibitory concentration (IC50) on tumor cells, CCK-8, K562
Details: Homo sapiens, K562, 48 h, read-out: IC50 (nM)/K562 cell line
Description: Determination of Half Inhibitory Concentration (IC50) of PROTAD Compounds on Tumor Cells
K562 cells were seeded in 100 μL of RPMI1640 complete medium at a density of 20,000 cells/well. 100 μL of the inoculated cells were treated with 100 μL diluted PROTAD compound of the present disclosure to be tested at 9 successively decreasing concentrations (starting at the highest concentration of 10 μM; 3-fold serial dilutions). After the cells were treated with the tested drugs for 48 hours, the cell viability determination was performed in accordance with CCK-8 reagent operating instructions. The negative control was DMSO, and positive control was a commercial inhibitor. After CCK-8 treatment for 2 h, the value of O.D.450 was measured using a microplate reader.

IC50 | SMILES
400 nM | COc1cc(Nc2c(C#N)cnc3cc(OCCCN4CCN(C(=O)CCCSc5cccc6c5C(=O)N(C5CCC(=O)NC5=O)C6=O)CC4)c(OC)cc23)c(Cl)cc1Cl (centres unmarked) [SIAIS151170, 4-((2,4-dichloro-5-methoxyphenyl)amino)-7-(3-(4-(4-((2-(2,6-dioxopiperidin-3-yl)-1,3-dioxoisoindolin-4-yl)thio)butanoyl)piperazin-1-yl)propoxy)-6-methoxyquinoline-3-carbonitrile]
1540 nM | COc1cc(Nc2c(C#N)cnc3cc(OCCCN4CCN(C(=O)CCCCSc5cccc6c5C(=O)N(C5CCC(=O)NC5=O)C6=O)CC4)c(OC)cc23)c(Cl)cc1Cl (centres unmarked) [SIAIS151171, 4-((2,4-dichloro-5-methoxyphenyl)amino)-7-(3-(4-(5-((2-(2,6-dioxopiperidin-3-yl)-1,3-dioxoisoindolin-4-yl)thio)pentanoyl)piperazin-1-yl)propoxy)-6-methoxyquinoline-3-carbonitrile]
1370 nM | COc1cc(Nc2c(C#N)cnc3cc(OCCCN4CCN(C(=O)CCCCCSc5cccc6c5C(=O)N(C5CCC(=O)NC5=O)C6=O)CC4)c(OC)cc23)c(Cl)cc1Cl (centres unmarked) [SIAIS151172, 4-((2,4-dichloro-5-methoxyphenyl)amino)-7-(3-(4-(6-((2-(2,6-dioxopiperidin-3-yl)-1,3-dioxoisoindolin-4-yl)thio)hexanoyl)piperazin-1-yl)propoxy)-6-methoxyquinoline-3-carbonitrile]
8260 nM | COc1cc(Nc2c(C#N)cnc3cc(OCCCN4CCN(C(=O)CCCCCCSc5cccc6c5C(=O)N(C5CCC(=O)NC5=O)C6=O)CC4)c(OC)cc23)c(Cl)cc1Cl (centres unmarked) [SIAIS151173, 4-((2,4-dichloro-5-methoxyphenyl)amino)-7-(3-(4-(7-((2-(2,6-dioxopiperidin-3-yl)-1,3-dioxoisoindolin-4-yl)thio)heptanoyl)piperazin-1-yl)propoxy)-6-methoxyquinoline-3-carbonitrile]
0.09 nM | Cc1nc(Nc2ncc(C(=O)Nc3c(C)cccc3Cl)s2)cc(N2CCN(CCCSc3cccc4c3CN(C3CCC(=O)NC3=O)C4=O)CC2)n1 (centres unmarked) [SIAIS171181, N-(2-chloro-6-methylphenyl)-2-((6-(4-(3-((2-(2,6-dioxopiperidin-3-yl)-1-oxoisoindolin-4-yl)thio)propyl)piperazin-1-yl)-2-methylpyrimidin-4-yl)amino)thiazole-5-carboxamide]
2.97 nM | Cc1ccc(C(=O)Nc2ccc(CN3CCN(C(=O)CCSc4cccc5c4C(=O)N(C4CCC(=O)NC4=O)C5=O)CC3)c(C(F)(F)F)c2)cc1C#Cc1cnc2cccnn12 (centres unmarked) [SIAIS220046, N-(4-((4-(3-((2-(2,6-dioxopiperidin-3-yl)-1,3-dioxoisoindolin-4-yl)thio)propanoyl)piperazin-1-yl)methyl)-3-(trifluoromethyl)phenyl)-3-(imidazo[1,2-b]pyridazin-3-ylethynyl)-4-methylbenzamide]
3.23 nM | Cc1ccc(C(=O)Nc2ccc(CN3CCN(C(=O)CCCSc4cccc5c4C(=O)N(C4CCC(=O)NC4=O)C5=O)CC3)c(C(F)(F)F)c2)cc1C#Cc1cnc2cccnn12 (centres unmarked) [SIAIS220047, N-(4-((4-(4-((2-(2,6-dioxopiperidin-3-yl)-1,3-dioxoisoindolin-4-yl)thio)butanoyl)piperazin-1-yl)methyl)-3-(trifluoromethyl)phenyl)-3-(imidazo[1,2-b]pyridazin-3-ylethynyl)-4-methylbenzamide]
